Read-outs that look alike come from different tables or passages of the source.
Tests used:
[1] = biological target: ERK1 (Homo sapiens, UniProt P27361); assay: ERK1 and 2 Enzymatic Inhibition Assay (ERK1); assay type: biochemical; details: 10 assay concentrations 2×10^−6 M to 6×10^−11 M, 1% DMSO
Description: (§1) ERK1 and 2 Enzymatic Inhibition Assay
(§2) For the Ki determination assay, 200 μM stock solutions of compounds were subjected to a serial, semi-logarithmic dilution using 100% DMSO as a solvent. 10 distinct concentrations were prepared, with a dilution endpoint of 6×10^−9 M in 100% DMSO. 100% DMSO was used as a control. 10 μL from each of the serial dilutions were aliquoted into separate wells of a 96-well plate and 90 μL of water were added to each of those wells. The plate was shaken thoroughly, and 5 μL from each of the plate's wells were transferred into wells of the assay plate. The final volume of wells in the assay plate was 50 μL. All compounds were tested at 10 assay concentrations in the range from 2×10^−6 M to 6×10^−11 M. The final DMSO concentration in the wells of the assay plate was 1% in all cases.

[2] = biological target: ERK2 (Homo sapiens, UniProt P28482); assay: ERK1 and 2 Enzymatic Inhibition Assay (ERK2); assay type: biochemical; details: 10 assay concentrations 2×10^−6 M to 6×10^−11 M, 1% DMSO
Description: as §1, §2

[3] = system: drug-resistant cell lines of Table 4; assay: Cell line growth retardation assay, average over resistant cohort; assay type: cell-based, Human; details: geometric mean of IC50s over resistant cohort (Table 4), 6 days growth, read-out: AvgRes IC50
Description: (§3) Cell Line Growth Retardation Assay
(§4) Cells were seeded at densities of 1,000-5,000 cells per well in 48-well tissue culture plates. After a 24 h rest period, cells were treated with compound at 10 μM, 2 μM, 0.4 μM, 0.08 μM, 0.016 μM, and 0.0032 μM. A group of cells were treated with the vehicle in which the compound was prepared and served as a control. The cells were grown in the presence of compounds for 6 days and were counted on day 0 and day 6. All cell counting was performed using a Synentec Cellavista plate imager. […] Growth inhibition was calculated as a ratio of cell population doublings in the presence of compound versus the absence of compound. […] IC50 values for each compound were calculated by fitting curves to data points from each dose-response assay using the Proc NLIN function in SAS for Windows version 9.2 (SAS Institute, Inc.).
(§5) Designation of Sensitivity and Resistant Cohorts and Calculation of Average IC50 Values
(§6) Human cancer cell lines were grouped as “sensitive” or “resistant” to ERK1 inhibition based on whether their growth was retarded by KO-947 (i.e., 1,5,6,8-tetrahydro-6-(phenylmethyl)-3-(4-pyridinyl)-7H-pyrazolo[4,3-g]quinazolin-7-one) and SCH772984 (i.e., (3R)-1-[2-oxo-2-[4-[4-(2-pyrimidinyl)phenyl]-1-piperazinyl]ethyl]-N-[3-(4-pyridinyl)-1H-indazol-5-yl]-3-pyrrolidinecarboxamide) (data not shown; see Table 4). These sensitive and resistant cohorts were interrogated for response to each compound, and IC50s were calculated for each cell line using the same technique described above. Average IC50s for the sensitive and resistant cohorts were calculated as geometric means of the group.

[4] = system: drug-sensitive cell lines of Table 4; assay: Cell line growth retardation assay, average over sensitive cohort; assay type: cell-based, Human; details: geometric mean of IC50s over sensitive cohort (Table 4), 6 days growth, read-out: AvgSens IC50
Description: as §3, §4, §5, §6

Chain of ERK2 (P28482 whole entry): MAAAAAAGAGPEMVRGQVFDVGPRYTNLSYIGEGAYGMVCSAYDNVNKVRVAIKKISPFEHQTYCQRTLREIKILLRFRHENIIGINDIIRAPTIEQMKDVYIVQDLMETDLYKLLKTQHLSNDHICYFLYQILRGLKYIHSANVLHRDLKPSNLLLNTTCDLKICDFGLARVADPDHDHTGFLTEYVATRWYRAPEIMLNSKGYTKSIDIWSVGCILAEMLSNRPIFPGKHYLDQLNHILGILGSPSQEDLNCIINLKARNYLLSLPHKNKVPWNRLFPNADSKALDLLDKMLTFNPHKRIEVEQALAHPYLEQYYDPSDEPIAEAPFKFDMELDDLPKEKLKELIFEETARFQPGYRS
Chain of ERK1 (P27361 whole entry): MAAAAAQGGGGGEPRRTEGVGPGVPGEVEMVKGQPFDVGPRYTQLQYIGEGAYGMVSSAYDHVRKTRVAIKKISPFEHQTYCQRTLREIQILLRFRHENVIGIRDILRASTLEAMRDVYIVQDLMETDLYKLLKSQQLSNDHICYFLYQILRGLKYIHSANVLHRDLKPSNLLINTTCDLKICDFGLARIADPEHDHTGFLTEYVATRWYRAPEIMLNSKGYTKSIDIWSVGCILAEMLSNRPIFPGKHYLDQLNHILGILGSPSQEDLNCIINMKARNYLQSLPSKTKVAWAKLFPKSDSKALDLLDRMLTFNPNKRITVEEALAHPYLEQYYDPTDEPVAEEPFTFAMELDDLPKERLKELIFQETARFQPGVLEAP

Kd [1] [nM]	Kd [2] [nM]	SMILES	IC50 ([3]; Homo sapiens, 144 h) [nM]	IC50 ([4]; Homo sapiens, 144 h) [nM]	IC50 [3] [nM]	IC50 [4] [nM]
11 to 100	11 to 100	C[C@@H](CNC(=O)c1ncc(-c2c[nH]c3ncc(N4CCOCC4)cc23)cn1)c1ccccc1 [Compound 33]				
11 to 100	11 to 100	CC(NC(=O)c1ncc(-c2c[nH]c3ncc(N4CCOC(C)(C)C4)cc23)cn1)c1ccccc1 (stereo in doubt) [Compound 38, (R)-5-(5-(2,2-dimethylmorpholino)-1H-pyrrolo[2,3-b]pyridin-3-yl)-N-(1-phenylethyl)pyrimidine-2-carboxamide]	> 500	> 500		
≤ 10	11 to 100	CC(NC(=O)c1ncc(-c2c[nH]c3ncc(N4C[C@@H](C)O[C@@H](C)C4)cc23)cn1)c1ccccc1 (stereo in doubt) [Compound 36, 5-(5-((2R,6S)-2,6-dimethylmorpholino)-1H-pyrrolo[2,3-b]pyridin-3-yl)-N—((R)-1-phenylethyl)pyrimidine-2-carboxamide]	> 500	> 500		
≤ 10	≤ 10	C[C@H](NC(=O)c1ncc(-c2c[nH]c3ncc(N4CCOCC4)cc23)cn1)c1ccccc1Cl [Compound 45, (S)—N-(1-(2-chlorophenyl)ethyl)-5-(5-morpholino-1H-pyrrolo[2,3-b]pyridin-3-yl)pyrimidine-2-carboxamide]	> 500	≤ 250		
≤ 10	≤ 10	Cc1cc(-c2cnc3[nH]cc(-c4cnc(C(=O)NC(C)c5ccccc5)nc4)c3c2)ccn1 (stereo in doubt) [Compound 40, (R)-5-(5-(2-methylpyridin-4-yl)-1H-pyrrolo[2,3-b]pyridin-3-yl)-N-(1-phenylethyl)pyrimidine-2-carboxamide]	> 500	≤ 250		
≤ 10	≤ 10	O=C(NC(c1ccccc1)C1CC1)c1ncc(-c2c[nH]c3ncc(N4CCOCC4)cc23)cn1 (stereo not shown) [Compound 49, N-(cyclopropyl(phenyl)methyl)-5-(5-morpholino-1H-pyrrolo[2,3-b]pyridin-3-yl)pyrimidine-2-carboxamide]	> 500	251 to 500		
≤ 10	≤ 10	O=C(NC(c1ccccc1)C(F)(F)F)c1ncc(-c2c[nH]c3ncc(N4CCOCC4)cc23)cn1 (stereo in doubt) [Compound 47, (S)-5-(5-morpholino-1H-pyrrolo[2,3-b]pyridin-3-yl)-N-(2,2,2-trifluoro-1-phenylethyl)pyrimidine-2-carboxamide]	> 500	251 to 500		
> 100	> 100	C[C@@H](Cc1ccccc1)NC(=O)c1ncc(-c2c[nH]c3ncc(N4CCOCC4)cc23)cn1 [Compound 30, (S)-5-(5-morpholino-1H-pyrrolo[2,3-b]pyridin-3-yl)-N-(1-phenylpropan-2-yl)pyrimidine-2-carboxamide]				
> 100	> 100	O=C(NCCc1ccccc1)c1ccc(-c2c[nH]c3ncc(N4CCOCC4)cc23)nc1 [Compound 9, 6-(5-morpholino-1H-pyrrolo[2,3-b]pyridin-3-yl)-N-phenethylnicotinamide]	> 500	> 500		
≤ 10	≤ 10	O=C(NCCc1ccccc1Cl)c1ncc(-c2c[nH]c3ncc(N4CCOCC4)cc23)cn1 [Compound 61, N-(2-chlorophenethyl)-5-(5-morpholino-1H-pyrrolo[2,3-b]pyridin-3-yl)pyrimidine-2-carboxamide]	> 500	251 to 500		
≤ 10	11 to 100	C[C@H](NC(=O)c1ncc(-c2c[nH]c3ncc(N4CCOCC4)cc23)cn1)c1ccccc1C#N [Compound 48, (S)—N-(1-(2-cyanophenyl)ethyl)-5-(5-morpholino-1H-pyrrolo[2,3-b]pyridin-3-yl)pyrimidine-2-carboxamide]				
		c1ccc([C@@H]2CN=C(c3ncc(-c4c[nH]c5ncc(N6CCOCC6)cc45)cn3)O2)cc1 [Compound 54, (R)-4-(3-(2-(5-phenyl-4,5-dihydrooxazol-2-yl)pyrimidin-5-yl)-1H-pyrrolo[2,3-b]pyridin-5-yl)morpholine]			> 500	
≤ 10	11 to 100	O=C(NCc1ccccc1)c1ncc(-c2c[nH]c3ncc(N4CCOCC4)cc23)cn1 [Compound 7, N-benzyl-5-(5-morpholino-1H-pyrrolo[2,3-b]pyridin-3-yl)pyrimidine-2-carboxamide]	> 500	> 500		
≤ 10	≤ 10	C[C@H](NC(=O)c1ncc(-c2c[nH]c3ncc(-c4ccncc4)cc23)cn1)c1ccccc1 [Compound 39, (S)—N-(1-phenylethyl)-5-(5-(pyridin-4-yl)-1H-pyrrolo[2,3-b]pyridin-3-yl)pyrimidine-2-carboxamide]	> 500	≤ 250		
11 to 100	> 100	CC(NC(=O)c1ncc(-c2c[nH]c3ncc(N4CCC45COC5)cc23)cn1)c1ccccc1 (stereo in doubt) [Compound 43, (R)-5-(5-(6-oxa-1-azaspiro[3.3]heptan-6-yl)-1H-pyrrolo[2,3-b]pyridin-3-yl)-N-(1-phenylethyl)pyrimidine-2-carboxamide]	> 500	> 500		
11 to 100	11 to 100	O=C(NCCc1cccc(C(F)(F)F)c1)c1ncc(-c2c[nH]c3ncc(N4CCOCC4)cc23)cn1 [Compound 64, 5-(5-morpholino-1H-pyrrolo[2,3-b]pyridin-3-yl)-N-(3-(trifluoromethyl)phenethyl)pyrimidine-2-carboxamide]				
11 to 100	11 to 100	c1ccc([C@H]2CN=C(c3ncc(-c4c[nH]c5ncc(N6CCOCC6)cc45)cn3)N2)cc1 [Compound 15, (S)-4-(3-(2-(5-phenyl-4,5-dihydro-1H-imidazol-2-yl)pyrimidin-5-yl)-1H-pyrrolo[2,3-b]pyridin-5-yl)morpholine]	> 500	> 500		
> 100	> 100	CN(Cc1ccccc1)C(=O)c1ncc(-c2c[nH]c3ncc(N4CCOCC4)cc23)cn1 [Compound 8, N-benzyl-N-methyl-5-(5-morpholino-1H-pyrrolo[2,3-b]pyridin-3-yl)pyrimidine-2-carboxamide]	> 500	> 500		
11 to 100	11 to 100	C[C@H](NC(=O)c1ncc(-c2c[nH]c3ncc(NCCO)cc23)cn1)c1ccccc1 [Compound 68]				
11 to 100	11 to 100	O=C(NCCc1cccc(F)c1)c1ncc(-c2c[nH]c3ncc(N4CCOCC4)cc23)cn1 [Compound 63, N-(3-fluorophenethyl)-5-(5-morpholino-1H-pyrrolo[2,3-b]pyridin-3-yl)pyrimidine-2-carboxamide]				
		c1ccc([C@@H]2COC(c3ncc(-c4c[nH]c5ncc(N6CCOCC6)cc45)cn3)=N2)cc1 [Compound 52, (R)-4-(3-(2-(4-phenyl-4,5-dihydrooxazol-2-yl)pyrimidin-5-yl)-1H-pyrrolo[2,3-b]pyridin-5-yl)morpholine]			> 500	> 500
11 to 100	≤ 10	O=C(NCCc1ccccc1C(F)(F)F)c1ncc(-c2c[nH]c3ncc(N4CCOCC4)cc23)cn1 [Compound 59, 5-(5-morpholino-1H-pyrrolo[2,3-b]pyridin-3-yl)-N-(2-(trifluoromethyl)phenethyl)pyrimidine-2-carboxamide]				
≤ 10	≤ 10	O=C(NCCc1ccccc1F)c1ncc(-c2c[nH]c3ncc(N4CCOCC4)cc23)cn1 [Compound 58, N-(2-fluorophenethyl)-5-(5-morpholino-1H-pyrrolo[2,3-b]pyridin-3-yl)pyrimidine-2-carboxamide]				
> 100	> 100	O=C(Nc1ccccc1)c1ncc(-c2c[nH]c3ncc(N4CCOCC4)cc23)cn1 [Compound 23, 5-(5-morpholino-1H-pyrrolo[2,3-b]pyridin-3-yl)-N-phenylpyrimidine-2-carboxamide]				
